In the NIST ThermoML archive (doi:10.1016/j.jct.2018.12.009):

Assay: molar heat capacity at constant volume
Conditions: Mass density=329.2 kg/m3

CC(C)O [propan-2-ol]
molar heat capacity at constant volume [J/K/mol]
Conditions | Fluid (supercritical or subcritical phases) | Liquid
314.29 K | 177.46 | –
314.52 K | 182.81 | –
314.8 K | 184.67 | –
315.05 K | 181.49 | –
315.3 K | 177.88 | –
315.42 K | 176.26 | –
315.61 K | 174.88 | –
315.8 K | 178.6 | –
341.91 K | 203.12 | –
342.08 K | 202.22 | –
342.2 K | 203.54 | –
342.32 K | 207.27 | –
342.49 K | 201.32 | –
342.67 K | 203.72 | –
342.79 K | 202.76 | –
342.91 K | 201.62 | –
343.03 K | 204.08 | –
369.05 K | 225.9 | –
369.16 K | 220.01 | –
369.28 K | 231.31 | –
369.39 K | 222.83 | –
369.5 K | 225.96 | –
369.67 K | 223.55 | –
369.84 K | 221.75 | –
369.96 K | 221.03 | –
370.07 K | 219.47 | –
391.32 K | 243.38 | –
391.53 K | 248.85 | –
391.54 K | 243.44 | –
391.65 K | 246.93 | –
391.76 K | 235.69 | –
391.87 K | 241.16 | –
391.98 K | 242.54 | –
392.09 K | 244.11 | –
392.2 K | 243.2 | –
416.55 K | 258.83 | –
416.65 K | 260.09 | –
416.76 K | 252.52 | –
416.86 K | 257.99 | –
416.97 K | 255.76 | –
417.08 K | 261.47 | –
417.18 K | 252.94 | –
417.29 K | 253.84 | –
417.4 K | 259.73 | –
417.5 K | 261.17 | –
442.12 K | 262.92 | –
442.23 K | 265.86 | –
442.33 K | 272.53 | –
442.43 K | 265.68 | –
442.54 K | 266.76 | –
442.64 K | 267.6 | –
442.74 K | 270.13 | –
442.85 K | 265.86 | –
463.48 K | 270.31 | –
463.58 K | 271.63 | –
463.78 K | 270.31 | –
463.83 K | 274.63 | –
463.97 K | 279.44 | –
464.18 K | 278.72 | –
464.27 K | 280.16 | –
464.42 K | 278.24 | –
464.97 K | 277.34 | –
465.27 K | 272.77 | –
465.34 K | 278.54 | –
482.51 K | 288.1 | –
482.6 K | 289.9 | –
482.7 K | 288.46 | –
482.8 K | 287.73 | –
482.89 K | 288.34 | –
482.99 K | 292 | –
483.09 K | 287.19 | –
483.18 K | 291.64 | –
500.85 K | 316.94 | –
500.95 K | 311.35 | –
501.04 K | 310.87 | –
501.14 K | 313.94 | –
501.23 K | 314.06 | –
501.33 K | 310.75 | –
501.42 K | 316.76 | –
501.53 K | 318.08 | –
501.62 K | 320.49 | –
501.81 K | 316.64 | –
501.9 K | 317.06 | –
503.92 K | 322.05 | –
504.02 K | 325.72 | –
504.11 K | 323.31 | –
504.31 K | 318.86 | –
504.5 K | 325.72 | –
504.59 K | 319.65 | –
504.98 K | 328.36 | –
505.08 K | 326.92 | –
505.27 K | 325.96 | –
505.37 K | 325.35 | –
506.43 K | 328.06 | –
506.53 K | 330.64 | –
506.62 K | 335.93 | –
506.72 K | 332.69 | –
506.82 K | 332.27 | –
506.97 K | 330.22 | –
507.11 K | 342.54 | –
507.2 K | 339.6 | –
507.3 K | 339.42 | –
507.4 K | 335.93 | –
507.5 K | 343.02 | –
507.59 K | 338.94 | –
507.69 K | 354.86 | –
507.79 K | 347.95 | –
507.89 K | 352.76 | –
508.04 K | 358.17 | –
508.16 K | 363.76 | 218.14
508.18 K | – | 208.53
508.28 K | – | 195.91
508.37 K | – | 187.8
508.47 K | – | 185.69
508.57 K | – | 186.9
508.67 K | – | 192.91
508.76 K | – | 186.9
509.35 K | – | 179.56
509.45 K | – | 180.16
509.55 K | – | 178.84
509.64 K | – | 179.98
509.79 K | – | 177.46
509.99 K | – | 177.28
510.14 K | – | 178.12
510.23 K | – | 177.94
510.33 K | – | 176.68
510.48 K | – | 178.6
516.9 K | – | 176.74
516.99 K | – | 176.8
517.08 K | – | 176.8
517.27 K | – | 172.17
521.87 K | – | 173.13
521.96 K | – | 168.57
522.14 K | – | 173.19
522.33 K | – | 168.63
522.42 K | – | 171.63
522.51 K | – | 173.85
522.6 K | – | 175.18
530.01 K | – | 168.39
532.04 K | – | 168.27
535.11 K | – | 168.33
540.06 K | – | 168.39
545.13 K | – | 168.63
560.04 K | – | 169.77
570.09 K | – | 173.85
580.16 K | – | 174.22
590.07 K | – | 176.38
600.1 K | – | 178.6
